# Reference: ChEMBL document CHEMBL1201861, “Genomics of Drug Sensitity in Cancer screening data, Wellcome Trust Sanger Institute”
# Structures can show the parent of a compound that is named as a salt.
# Columns and labels:
# [1] = tested on: SAS; experiment: cells; assay type: functional, cell-based, Homo sapiens; settings: Homo sapiens, SAS
# Description: SANGER: Inhibition of human SAS cell growth in a cell viability assay.
# [2] = tested on: MDA-MB-468; experiment: cells; assay type: functional, cell-based, Homo sapiens; settings: Homo sapiens, MDA-MB-468
# Description: SANGER: Inhibition of human MDA-MB-468 cell growth in a cell viability assay.
# [3] = tested on: LOUCY; experiment: cells; assay type: functional, cell-based, Homo sapiens; settings: Homo sapiens, LOUCY
# Description: SANGER: Inhibition of human LOUCY cell growth in a cell viability assay.
# [4] = tested on: LCLC-103H cell line; experiment: cells; assay type: functional, cell-based, Homo sapiens; settings: Homo sapiens, LCLC-103H
# Description: SANGER: Inhibition of human LCLC-103H cell growth in a cell viability assay.
# [5] = tested on: SCC-4; experiment: cells; assay type: functional, cell-based, Homo sapiens; settings: Homo sapiens, SCC-4;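 also: growth inhibition of human SCC-4 cells, read out as cell viability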
# Description: SANGER: Inhibition of human SCC-4 cell growth in a cell viability assay.
# [6] = tested on: DU-145; experiment: cells; assay type: functional, cell-based, Homo sapiens; settings: Homo sapiens, DU-145
# Description: SANGER: Inhibition of human DU-145 cell growth in a cell viability assay.
# [7] = tested on: HCT-15; experiment: cells; assay type: functional, cell-based, Homo sapiens; settings: Homo sapiens, HCT-15;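 also: cell viability readout, IC50 reflecting suppression of HCT-15 cell growth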
# Description: SANGER: Inhibition of human HCT-15 cell growth in a cell viability assay.
# [8] = tested on: OPM-2; experiment: cells; assay type: functional, cell-based, Homo sapiens; settings: Homo sapiens, OPM-2;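 also: growth of OPM-2 cells measured with a viability assay, IC50 for suppression of proliferation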
# Description: SANGER: Inhibition of human OPM-2 cell growth in a cell viability assay.
# [9] = tested on: NCI-H1882; experiment: cells; assay type: functional, cell-based, Homo sapiens; settings: Homo sapiens, NCI-H1882;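 also: growth inhibition of the cell line, determined with a viability assay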
# Description: SANGER: Inhibition of human NCI-H1882 cell growth in a cell viability assay.
# [10] = tested on: NCI-H345; experiment: cells; assay type: functional, cell-based, Homo sapiens; settings: Homo sapiens, NCI-H345;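 also: growth inhibition of NCI-H345 cells measured with a cell viability assay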
# Description: SANGER: Inhibition of human NCI-H345 cell growth in a cell viability assay.
# [11] = tested on: L-540; experiment: cells; assay type: functional, cell-based, Homo sapiens; settings: Homo sapiens, L-540;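 also: growth inhibition of the human L-540 cell line, read out with a viability assay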
# Description: SANGER: Inhibition of human L-540 cell growth in a cell viability assay.
# [12] = tested on: CHP-126; experiment: cells; assay type: functional, cell-based, Homo sapiens; settings: Homo sapiens, CHP-126
# Description: SANGER: Inhibition of human CHP-126 cell growth in a cell viability assay.
# [13] = tested on: EFE-184; experiment: cells; assay type: functional, cell-based, Homo sapiens; settings: Homo sapiens, EFE-184
# Description: SANGER: Inhibition of human EFE-184 cell growth in a cell viability assay.
# [14] = tested on: Panc1005; experiment: cells; assay type: functional, cell-based, Homo sapiens; settings: Homo sapiens, Panc1005;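 also: growth inhibition of human PANC-10-05 cells, measured by a cell viability assay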
# Description: SANGER: Inhibition of human PANC-10-05 cell growth in a cell viability assay.
# [15] = tested on: DMS-53; experiment: cells; assay type: functional, cell-based, Homo sapiens; settings: Homo sapiens, DMS-53;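 also: cell viability assay measuring growth inhibition of human DMS-53 cells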
# Description: SANGER: Inhibition of human DMS-53 cell growth in a cell viability assay.
# [16] = tested on: NCI-H838; experiment: cells; assay type: functional, cell-based, Homo sapiens; settings: Homo sapiens, NCI-H838;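 also: growth inhibition of human NCI-H838 cells, read out by a cell viability assay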
# Description: SANGER: Inhibition of human NCI-H838 cell growth in a cell viability assay.
# [17] = tested on: NCI-H1618; experiment: cells; assay type: functional, cell-based, Homo sapiens; settings: Homo sapiens, NCI-H1618;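 also: growth inhibition of human NCI-H1618 cells, measured by a cell viability assay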
# Description: SANGER: Inhibition of human NCI-H1618 cell growth in a cell viability assay.
# [18] = tested on: COR-L105; experiment: cells; assay type: functional, cell-based, Homo sapiens; settings: Homo sapiens, COR-L105
# Description: SANGER: Inhibition of human COR-L105 cell growth in a cell viability assay.
# [19] = tested on: Calu-1; experiment: SANGER: Inhibition of human Calu-1 cell growth in a cell viability assay.; assay type: functional, cell-based; settings: Homo sapiens, Calu-1
# [20] = tested on: NCI-H889; experiment: cells; assay type: functional, cell-based, Homo sapiens; settings: Homo sapiens, NCI-H889
# Description: SANGER: Inhibition of human NCI-H889 cell growth in a cell viability assay.
# [21] = tested on: TALL-1; experiment: cells; assay type: functional, cell-based, Homo sapiens; settings: Homo sapiens, TALL-1;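 also: growth inhibition of cultured human TALL-1 cells, read out by a cell viability assay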
# Description: SANGER: Inhibition of human TALL-1 cell growth in a cell viability assay.
# [22] = tested on: REH; experiment: cells; assay type: functional, cell-based, Homo sapiens; settings: Homo sapiens, REH;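 also: growth inhibition of REH cells determined with a cell viability read-out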
# Description: SANGER: Inhibition of human REH cell growth in a cell viability assay.
# [23] = tested on: COLO 205; experiment: cells; assay type: functional, cell-based, Homo sapiens; settings: Homo sapiens, COLO 205
# Description: SANGER: Inhibition of human COLO-205 cell growth in a cell viability assay.
# [24] = tested on: SK-CO-1; experiment: cells; assay type: functional, cell-based, Homo sapiens; settings: Homo sapiens, SK-CO-1;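 also: growth inhibition of SK-CO-1 cells, determined by a viability readout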
# Description: SANGER: Inhibition of human SK-CO-1 cell growth in a cell viability assay.
# [25] = tested on: UACC-812; experiment: cells; assay type: functional, cell-based, Homo sapiens; settings: Homo sapiens, UACC-812
# Description: SANGER: Inhibition of human UACC-812 cell growth in a cell viability assay.
# [26] = tested on: GCT; experiment: cells; assay type: functional, cell-based, Homo sapiens; settings: Homo sapiens, GCT;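 also: GCT cell line proliferation inhibition, read out with a cell viability assay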
# Description: SANGER: Inhibition of human GCT cell growth in a cell viability assay.
# [27] = tested on: IPC-298; experiment: SANGER: Inhibition of human IPC-298 cell growth in a cell viability assay.; assay type: functional, cell-based; settings: Homo sapiens, IPC-298
# [28] = tested on: SNU-475; experiment: cells; assay type: functional, cell-based, Homo sapiens; settings: Homo sapiens, SNU-475
# Description: SANGER: Inhibition of human SNU-475 cell growth in a cell viability assay.
# [29] = tested on: HuP-T4; experiment: cells; assay type: functional, cell-based, Homo sapiens; settings: Homo sapiens, HuP-T4;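 also: cell viability assay measuring how much HuP-T4 cell growth is inhibited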
# Description: SANGER: Inhibition of human HuP-T4 cell growth in a cell viability assay.
# [30] = tested on: BEN; experiment: cells; assay type: functional, cell-based, Homo sapiens; settings: Homo sapiens, BEN;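 also: growth inhibition of the BEN cell line, read out with a cell viability assay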
# Description: SANGER: Inhibition of human BEN cell growth in a cell viability assay.
# [31] = tested on: EW-7; experiment: SANGER: Inhibition of human EW-7 cell growth in a cell viability assay.; assay type: functional, cell-based; settings: Homo sapiens, EW-7
# [32] = tested on: 647-V; experiment: cells; assay type: functional, cell-based, Homo sapiens; settings: Homo sapiens, 647-V;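 also: growth inhibition of 647-V cells, read out with a cell viability assay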
# Description: SANGER: Inhibition of human 647-V cell growth in a cell viability assay.
# [33] = tested on: RPMI 8402; experiment: SANGER: Inhibition of human RPMI-8402 cell growth in a cell viability assay.; assay type: functional, cell-based; settings: Homo sapiens, RPMI 8402; read-out: IC50
# [34] = tested on: SBC-5; experiment: cells; assay type: functional, cell-based, Homo sapiens; settings: Homo sapiens, SBC-5;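 also: cell viability assay read-out, IC50 is the concentration that inhibits growth of the cells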
# Description: SANGER: Inhibition of human SBC-5 cell growth in a cell viability assay.
# [35] = tested on: EFM-19; experiment: cells; assay type: functional, cell-based, Homo sapiens; settings: Homo sapiens, EFM-19;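 also: growth inhibition of human EFM-19 cells, measured in a cell viability assay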
# Description: SANGER: Inhibition of human EFM-19 cell growth in a cell viability assay.
# [36] = tested on: UACC-62; experiment: cells; assay type: functional, cell-based, Homo sapiens; settings: Homo sapiens, UACC-62;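 also: growth inhibition of human UACC-62 cells, read out by a cell viability assay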
# Description: SANGER: Inhibition of human UACC-62 cell growth in a cell viability assay.
# [37] = tested on: MFE-296; experiment: SANGER: Inhibition of human MFE-296 cell growth in a cell viability assay.; assay type: functional, cell-based; settings: Homo sapiens, MFE-296
# [38] = tested on: SK-MEL-28; experiment: cells; assay type: functional, cell-based, Homo sapiens; settings: Homo sapiens, SK-MEL-28;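 also: growth inhibition of human SK-MEL-28 cells, read out with a cell viability assay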
# Description: SANGER: Inhibition of human SK-MEL-28 cell growth in a cell viability assay.
# [39] = tested on: SNU-16; experiment: cells; assay type: functional, cell-based, Homo sapiens; settings: Homo sapiens, SNU-16;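 also: growth inhibition of human SNU-16 cells, determined with a cell viability readout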
# Description: SANGER: Inhibition of human NCI-SNU-16 cell growth in a cell viability assay.
# [40] = tested on: OAW-28; experiment: cells; assay type: functional, cell-based, Homo sapiens; settings: Homo sapiens, OAW-28;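 also: growth inhibition of OAW-28 cells, read out with a cell viability assay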
# Description: SANGER: Inhibition of human OAW-28 cell growth in a cell viability assay.
# [41] = tested on: HCC1143; experiment: cells; assay type: functional, cell-based, Homo sapiens; settings: Homo sapiens, HCC1143;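 also: growth inhibition of human HCC1143 cells, read out with a cell viability assay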
# Description: SANGER: Inhibition of human HCC1143 cell growth in a cell viability assay.
# [42] = tested on: SW780; experiment: cells; assay type: functional, cell-based, Homo sapiens; settings: Homo sapiens, SW780
# Description: SANGER: Inhibition of human SW780 cell growth in a cell viability assay.
structure (smiles),measurement,setting,value
Oc1ccc2ccccc2c1SSc1c(O)ccc2ccccc12,IC50,[1],> 32 µM
same,IC50,[2],> 32 µM
same,IC50,[3],> 32 µM
same,IC50,[4],18.5 µM
same,IC50,[5],> 32 µM
same,IC50,[6],8.21 µM
same,IC50,[7],> 32 µM
same,IC50,[8],> 32 µM
same,IC50,[9],> 32 µM
same,IC50,[10],> 32 µM
same,IC50,[11],> 32 µM
same,IC50,[12],6.74 µM
same,IC50,[13],> 32 µM
same,IC50,[14],> 32 µM
same,IC50,[15],> 32 µM
same,IC50,[16],> 32 µM
same,IC50,[17],> 32 µM
same,IC50,[18],7.36 µM
same,IC50,[19],> 32 µM
same,IC50,[20],> 32 µM
same,IC50,[21],> 32 µM
same,IC50,[22],3.37 µM
same,IC50,[23],> 32 µM
same,IC50,[24],> 32 µM
same,IC50,[25],> 32 µM
same,IC50,[26],> 32 µM
same,IC50,[27],> 32 µM
same,IC50,[28],> 32 µM
same,IC50,[29],> 32 µM
same,IC50,[30],> 32 µM
same,IC50,[31],> 32 µM
same,IC50,[32],> 32 µM
same,IC50,[33],5.77 µM
same,IC50,[34],> 32 µM
same,IC50,[35],27.3 µM
same,IC50,[36],> 32 µM
same,IC50,[37],> 32 µM
same,IC50,[38],> 32 µM
same,IC50,[39],> 32 µM
same,IC50,[40],> 32 µM
same,IC50,[41],> 32 µM
same,IC50,[42],> 32 µM
CCC/C=C/C=C/C(=O)O[C@H]1/C(=C/C(=O)OC)C[C@H]2C[C@H]([C@@H](C)O)OC(=O)C[C@H](O)C[C@@H]3C[C@H](OC(C)=O)C(C)(C)[C@](O)(C[C@@H]4C/C(=C/C(=O)OC)C[C@H](/C=C/C(C)(C)[C@]1(O)O2)O4)O3 [BRYOSTATIN 1],IC50,[1],> 0.008 µM
same,IC50,[2],> 0.008 µM
same,IC50,[3],> 0.008 µM
same,IC50,[4],> 0.008 µM
same,IC50,[5],> 0.008 µM
same,IC50,[6],> 0.008 µM
same,IC50,[7],> 0.008 µM
same,IC50,[8],> 0.008 µM
same,IC50,[9],> 0.008 µM
same,IC50,[10],> 0.008 µM
same,IC50,[11],> 0.008 µM
same,IC50,[12],> 0.008 µM
same,IC50,[13],> 0.008 µM
same,IC50,[14],> 0.008 µM
same,IC50,[15],> 0.008 µM
same,IC50,[16],> 0.008 µM
same,IC50,[17],> 0.008 µM
same,IC50,[18],> 0.008 µM
same,IC50,[19],> 0.008 µM
same,IC50,[20],> 0.008 µM
same,IC50,[21],> 0.008 µM
same,IC50,[22],> 0.008 µM
same,IC50,[23],> 0.008 µM
same,IC50,[24],> 0.008 µM
same,IC50,[25],> 0.008 µM
same,IC50,[26],> 0.008 µM
same,IC50,[27],> 0.008 µM
same,IC50,[28],> 0.008 µM
same,IC50,[29],> 0.008 µM
same,IC50,[30],> 0.008 µM
same,IC50,[31],> 0.008 µM
same,IC50,[32],> 0.008 µM
same,IC50,[33],> 0.008 µM
same,IC50,[34],> 0.008 µM
same,IC50,[35],> 0.008 µM
same,IC50,[36],> 0.008 µM
same,IC50,[37],> 0.008 µM
same,IC50,[38],> 0.008 µM
same,IC50,[39],> 0.008 µM
same,IC50,[40],> 0.008 µM
same,IC50,[41],> 0.008 µM
same,IC50,[42],> 0.008 µM
COC1=CC(c2cc3ccccc3[nH]2)=N/C1=C\c1[nH]c(C)cc1C [OBATOCLAX MESYLATE],IC50,[1],0.273 µM
same,IC50,[2],0.917 µM
same,IC50,[3],< 0.0625 µM
same,IC50,[4],0.185 µM
same,IC50,[5],2.14 µM
same,IC50,[6],0.467 µM
same,IC50,[7],0.225 µM
same,IC50,[8],0.509 µM
same,IC50,[9],4.51 µM
same,IC50,[10],> 16 µM
same,IC50,[11],0.216 µM
same,IC50,[12],1.57 µM
same,IC50,[13],7.32 µM
same,IC50,[14],0.115 µM
same,IC50,[15],0.478 µM
same,IC50,[16],0.528 µM
same,IC50,[17],2.88 µM
same,IC50,[18],0.322 µM
same,IC50,[19],0.313 µM
same,IC50,[20],> 16 µM
same,IC50,[21],> 16 µM
same,IC50,[22],0.0464 µM
same,IC50,[23],0.0572 µM
same,IC50,[24],2.62 µM
same,IC50,[25],11.7 µM
same,IC50,[26],2.59 µM
same,IC50,[27],< 0.0625 µM
same,IC50,[28],> 16 µM
same,IC50,[29],0.0412 µM
same,IC50,[30],1.07 µM
same,IC50,[31],< 0.0625 µM
same,IC50,[32],0.104 µM
same,IC50,[33],0.0186 µM
same,IC50,[34],0.212 µM
same,IC50,[35],0.124 µM
same,IC50,[36],0.302 µM
same,IC50,[37],0.139 µM
same,IC50,[38],1.23 µM
same,IC50,[39],13.1 µM
same,IC50,[40],0.202 µM
same,IC50,[41],0.174 µM
same,IC50,[42],1.09 µM
Cc1cc([N+](=O)[O-])ccc1NS(=O)(=O)c1cc(Cl)ccc1Cl,IC50,[1],> 32 µM
same,IC50,[2],1.21 µM
same,IC50,[3],20 µM
same,IC50,[4],5.6 µM
same,IC50,[5],13.8 µM
same,IC50,[6],4.69 µM
same,IC50,[7],6.87 µM
same,IC50,[8],> 32 µM
same,IC50,[9],> 32 µM
same,IC50,[10],17.8 µM
same,IC50,[11],9.46 µM
same,IC50,[12],> 32 µM
same,IC50,[13],5.8 µM
same,IC50,[14],5.37 µM
same,IC50,[15],1.1 µM
same,IC50,[16],20.6 µM
same,IC50,[17],> 32 µM
same,IC50,[18],6.58 µM
same,IC50,[19],8.64 µM
same,IC50,[20],> 32 µM
same,IC50,[21],6.23 µM
same,IC50,[22],11.5 µM
same,IC50,[23],2.55 µM
same,IC50,[24],13.4 µM
same,IC50,[25],> 32 µM
same,IC50,[26],2.93 µM
same,IC50,[27],2.69 µM
same,IC50,[28],> 32 µM
same,IC50,[29],1.68 µM
same,IC50,[30],2.28 µM
same,IC50,[31],> 32 µM
same,IC50,[32],3.09 µM
same,IC50,[33],6.85 µM
same,IC50,[34],1.61 µM
same,IC50,[35],5.44 µM
same,IC50,[36],0.256 µM
same,IC50,[37],4.7 µM
same,IC50,[38],0.355 µM
same,IC50,[39],> 32 µM
same,IC50,[40],24.7 µM
same,IC50,[41],1.82 µM
same,IC50,[42],6.1 µM
